A short description of series [1]: TAMRA-TAT internalization and Alexa Fluor 488 efflux in GUVs with increasing cholesterol. The conditions noted are these: 40 mol% chol (POPC/POPE/POPS/chol 30/20/10/40 mol%); CLSM. The class given is in vitro ADME. The procedure:
(§1) Giant unilamellar vesicles (GUVs) were obtained by the electroformation method as previously indicated. For that, 30 µL of different lipid mixtures (detailed in the Results section) were dissolved in chloroform and spread on indium tin oxide (ITO) glass slides (Sigma-Aldrich, Schnelldorf, Germany). After drying, the lipid film was gently hydrated with 200 mM sucrose dissolved in double distilled water, mixed with a fluorescent tracer, Alexa Fluor 488-maleimide (AF 488), at a concentration of 10 µM. The freshly prepared GUVs were then transferred in 180 mM glucose solution containing 20 mM Hepes, with a pH of 7.5. The samples were observed by confocal microscope at room temperature.
The experiments were performed using a confocal laser scanning microscope (Nikon Ti-E, Tokyo, Japan), equipped with LU4 Four-Laser Module with AOTF, a Plan Fluor 40x DIC M N2 objective and a DS-F1camera. […] For each type of experiment, at least 10–15 GUVs with a diameter of 30–40 μm from two independent experiments were analyzed. Successive images were collected using the Nis-Elements Advanced Research imaging software (Nikon) and then quantification of fluorescence was performed using Fiji ImageJ [14]. The resulting data were then analyzed with Origin Pro 8.5 (OriginLab Corporation, Northampton, MA, USA). […]

Series [2] is described as follows: Peptide internalization and Alexa Fluor 488 efflux in neutral GUVs, confocal laser scanning microscopy. The class given is in vitro ADME. To be noted: POPC/chol 80/20 mol% GUVs; 2 µM peptide; room temperature; up to 30 min; CLSM. The procedure:
as §1
(§2) The experiments were performed using a confocal laser scanning microscope (Nikon Ti-E, Tokyo, Japan), equipped with LU4 Four-Laser Module with AOTF, a Plan Fluor 40x DIC M N2 objective and a DS-F1camera. An Alexa Fluor 488 tracer was excited using a line of 457–514 nm argon ion laser, TAMRA-TAT peptide with a diode laser emitting at 561 nm, and Dy647P1-peptides with a 642 nm diode laser. To observe the accumulation and internalization of peptides and the efflux of fluorescent tracers, the freshly prepared GUVs were transferred to a solution of glucose containing 2 µM fluorescently labeled peptide, to provide a homogeneous distribution of peptides to membranes. For each type of experiment, at least 10–15 GUVs with a diameter of 30–40 μm from two independent experiments were analyzed. Successive images were collected using the Nis-Elements Advanced Research imaging software (Nikon) and then quantification of fluorescence was performed using Fiji ImageJ [14]. The resulting data were then analyzed with Origin Pro 8.5 (OriginLab Corporation, Northampton, MA, USA).
(§3) For the present study, GUVs mimicking the mammalian plasma membrane were prepared as follows: POPC/cholesterol 80/20 mol%, POPC/POPE/cholesterol 50/30/20 mol% and POPC/POPS/cholesterol 50/30/20 mol%. The peptides fluorescently labeled (see Figure 1 for structure) were added at a concentration of 2 µM and the experiments were performed at room temperature.

Series [3] is described as follows: Peptide internalization and Alexa Fluor 488 efflux in POPS GUVs, confocal laser scanning microscopy. To be noted: room temperature; for Internalization of peptide in GUVs / Pore formation (efflux of AF 488, lytic effect): POPC/POPS/chol 50/30/20 mol% GUVs, 2 µM peptide, 30 min, CLSM; for Kint, peptide internalization rate constant: GUVs POPC/POPS/chol 50/30/20 mol%, 2 µM fluorescently labeled peptide, 180 mM glucose, 20 mM Hepes pH 7.5, CLSM fluorescence inside GUVs, fit F(t)=1−exp(−kint×t), data from three experiments averaged. The class given is in vitro ADME. How it is done: as §1, §2, §3
(§4) For kinetic traces, the time course of fluorescence intensity corresponding to peptides and Alexa Fluor 488 inside GUVs was measured. The data from three experiments were averaged and then fitted with a single rising exponential function to determine the values of internalization rates:F(t) = 1 − exp (−kint × t) (1) where t is time and kint is the peptide internalization rate constant.
(§5) The intensity corresponding to release of tracer Alexa Fluor 488 from GUVs in the presence of peptides was also measured to determine the efflux rates, using a single exponential decay function:F(t) = exp (−keff × t) (2) where t is time and keff is the peptide efflux rate constant.

The nature of series [4]: Peptide internalization and Alexa Fluor 488 efflux in POPE GUVs, confocal laser scanning microscopy. The class given is in vitro ADME. To be noted: room temperature; for Kint, peptide internalization rate constant: GUVs POPC/POPE/chol 50/30/20 mol%, 2 µM fluorescently labeled peptide, 180 mM glucose, 20 mM Hepes pH 7.5, CLSM fluorescence inside GUVs, fit F(t)=1−exp(−kint×t), data from three experiments averaged. The procedure:
as §1, §2, §3, §4, §5

For series [5] the following is noted: DOPS and/or DOPE containing GUVs; cited from earlier work. From the text:
In GUVs that contain 30 mol% PE, all peptides internalize, but only TAT and NKCS are able to form transmembrane pores through which the fluorescent dyes Alexa Fluor 488 can pass.

The mark [6] stands for this setting: POPC/POPE/chol 50/30/20 mol% GUVs, 2 µM peptide, 30 min, CLSM.

Entries after “also recorded” stand apart in the source; their conditions may differ.

Consider `CN(C)c1ccc2c(c1)Oc1cc(N(C)C)ccc1C21OC(=O)c2cc(C(=O)N[C@@H](Cc3ccc(O)cc3)C(=O)NCC(=O)N[C@@H](CCCNC(=N)N)C(=O)N[C@@H](CCCCN)C(=O)N[C@@H](CCCCN)C(=O)N[C@@H](CCCNC(=N)N)C(=O)N[C@@H](CCCNC(=N)N)C(=O)N[C@@H](CCC(N)=O)C(=O)N[C@@H](CCCNC(=N)N)C(=O)N[C@@H](CCCNC(=N)N)C(=O)N[C@@H](CCCNC(=N)N)C(=O)O)ccc21` [TAT, reference compound], for which the “Internalization of the peptide” value in series [1] was “neither the internalization of the peptide nor the efflux of the fluorescent tracer could be registered”. Besides, the entries for the “Internalization of peptide in GUVs” value in series [2] and in series [3] were “Neither peptide internalization nor AF 488 efflux can be observed” and “internalized”, respectively.

Turning to “Dy647P1-CGNKRTR [tLyP-1, Dy647P1-labeled tumor homing peptide, truncated linear form of cyclic peptide LyP-1]”, the “Kint, peptide internalization rate constant” value in series [4] was “(0.78 ± 0.03) × 10^−3 s^−1”. In series [4] (setting [6]), the “Efflux of AF 488 (lytic effect, pore formation)” value is recorded as “without the release of AF 488”. The “Efflux of Alexa Fluor 488 from GUVs” value in series [2] is “Neither peptide internalization nor AF 488 efflux can be observed”. Besides, in series [3], the “Kint, peptide internalization rate constant” value is listed as “(0.75 ± 0.27) × 10^−3 s^−1” and the “Pore formation (efflux of AF 488, lytic effect)” value was “just translocate without generating pores”.

Take Dy647P1-LRRISKDILTGKK [NKCS-[15-27]]: the “Kint, peptide internalization rate constant” value in series [4] is reported as “(0.20 ± 0.04) × 10^−3 s^−1”. In addition, in series [4] (setting [6]), the “Efflux of AF 488 (lytic effect, pore formation)” value is recorded as “without the release of AF 488” and the “Internalization of peptide in GUVs” value is “internalized”. In series [2], the “Efflux of Alexa Fluor 488 from GUVs” value is “Neither peptide internalization nor AF 488 efflux can be observed” and the “Internalization of peptide in GUVs” value is “Neither peptide internalization nor AF 488 efflux can be observed”. In addition, in series [3], the “Kint, peptide internalization rate constant” value was “(0.50 ± 0.23) × 10^−3 s^−1”; the “Internalization of peptide in GUVs” value is “internalized”; the “Pore formation (efflux of AF 488, lytic effect)” value is recorded as “no lytic effect; also recorded: just translocate without generating pores”.

For the molecule nona-arginine [R9], in series [5], the Pore formation entry is “able to form pores”.

(Values after paper PMC9415903, “Confocal Laser Scanning Microscopy and Model Membranes to Study Translocation Mechanisms of Membrane Active Peptides” (Pharmaceutics, 2022).)
